According to the supplement of paper PMC10307832:

What was measured:
Test in all cases: relative viability (nuclei count vs DMSO), 5 days (fraction); higher = more cells survive
[1] = compound: CC1(COc2ccc3c(c2)ncn3-c2ccc3cccc(N4CCC(N)CC4)c3n2)COC1 [Crenolanib] + Cc1nc(NC(=O)N2CCC[C@H]2C(N)=O)sc1-c1ccnc(C(C)(C)C(F)(F)F)c1 [Alpelisib] (partner 2 µM)
Method in brief: (§1)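 Nuclei were stained with Hoechst during a one-step fixation (final 0.05% Triton X-100, 1% formaldehyde, 1 ug/ml Hoechst) carried out 5 days after dosing, then counted on 4× images. The cells, lung cancer lines in 1536-well plates, had been dosed by pin tool the day after seeding with one drug alone or a fixed anchor-drug dose plus five library-drug doses (not always all listed) in √10 steps. Relative viability is the nuclei count in treated wells divided by that in vehicle wells, and each value is the median of duplicate plates.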

[2] = compound: CC1(COc2ccc3c(c2)ncn3-c2ccc3cccc(N4CCC(N)CC4)c3n2)COC1 [Crenolanib] + O=C(c1cc(Cc2n[nH]c(=O)c3ccccc23)ccc1F)N1CCN(C(=O)C2CC2)CC1 [Olaparib] (partner 8 µM)
Method in brief: as §1

[3] = compound: O=C1NC(=O)[C@@H](c2cn3c4c(cccc24)CCC3)[C@@H]1c1c[nH]c2ccccc12 [Tivantinib] + CC(C)C[C@H](NC(=O)[C@H](Cc1ccccc1)NC(=O)c1cnccn1)B(O)O [Bortezomib] (partner 0.002 µM)
Method in brief: as §1

[4] = compound: O=C1NC(=O)[C@@H](c2cn3c4c(cccc24)CCC3)[C@@H]1c1c[nH]c2ccccc12 [Tivantinib] + C[C@]1(O)C[C@@H](c2nc(-c3ccc4ccc(-c5ccccc5)nc4c3)c3c(N)nccn32)C1 [Linsitinib] (partner 1 µM)
Method in brief: as §1

**Q.** What does the source list for NCI-H2023?
**A.** relative viability ([1]; first compound 0.01 µM): 0.627; relative viability ([1]; first compound 0.03162 µM): 0.655; relative viability ([1]; first compound 0.1 µM): 0.594; relative viability ([1]; first compound 0.3162 µM): 0.725; relative viability ([1]; first compound 1 µM): 0.635; relative viability ([2]; first compound 0.01 µM): 0.53; relative viability ([2]; first compound 0.03162 µM): 0.467; relative viability ([2]; first compound 0.1 µM): 0.476; relative viability ([2]; first compound 0.3162 µM): 0.451; relative viability ([2]; first compound 1 µM): 0.322; relative viability ([3]; first compound 0.01 µM): 1.06; relative viability ([3]; first compound 0.03162 µM): 0.654; relative viability ([3]; first compound 0.1 µM): 0.915; relative viability ([3]; first compound 0.3162 µM): 0.826; relative viability ([4]; first compound 0.01 µM): 0.657; relative viability ([4]; first compound 0.03162 µM): 0.737; relative viability ([4]; first compound 0.1 µM): 0.575; relative viability ([4]; first compound 0.3162 µM): 0.461
